Data reported in EPA's ToxValDB 9.5.

Test system: Rattus norvegicus
Settings: short-term, duration: 28 days, oral, gavage, Sprague-Dawley

O=C(O)C(F)(F)C(F)(F)C(F)(F)C(F)(F)C(F)(F)C(F)(F)C(F)(F)C(F)(F)F [Perfluorononanoic acid]
LOEL (F, Clinical chemistry_Alanine aminotransferase): 3.12 mg/kg-day
LOEL (F, Clinical chemistry_Albumin): 1.56 mg/kg-day
LOEL (F, Clinical chemistry_Albumin/globulin ratio): 1.56 mg/kg-day
LOEL (F, Clinical chemistry_Alkaline phosphatase): 3.12 mg/kg-day
NOEL (F, Clinical chemistry_Aspartate aminotransferase): 25 mg/kg-day
NOEL (F, Clinical chemistry_Cholesterol): 25 mg/kg-day
NOEL (F, Clinical chemistry_Creatinine kinase): 25 mg/kg-day
LOEL (F, Clinical chemistry_Direct bilirubin): 6.25 mg/kg-day
LOEL (F, Clinical chemistry_Free thyroxine): 3.12 mg/kg-day
LOEL (F, Clinical chemistry_Globulin): 1.56 mg/kg-day
NOEL (F, Clinical chemistry_Indirect bilirubin): 25 mg/kg-day
LOEL (F, Clinical chemistry_Sorbitol dehydrogenase): 1.56 mg/kg-day
LOEL (F, Clinical chemistry_Testosterone): 1.56 mg/kg-day
NOEL (F, Clinical chemistry_Thyroid stimulating hormone): 25 mg/kg-day
LOEL (F, Clinical chemistry_Total bile acids): 3.12 mg/kg-day
NOEL (F, Clinical chemistry_Total bilirubin): 25 mg/kg-day
LOEL (F, Clinical chemistry_Total protein): 1.56 mg/kg-day
LOEL (F, Clinical chemistry_Total thyroxine): 3.12 mg/kg-day
NOEL (F, Clinical chemistry_Total triiodothyronine): 25 mg/kg-day
NOEL (F, Clinical chemistry_Triglycerides): 25 mg/kg-day
LOEL (F, Gene expression_Acox1): 1.56 mg/kg-day
LOEL (F, Gene expression_Cyp2b1): 1.56 mg/kg-day
LOEL (F, Gene expression_Cyp2b2): 1.56 mg/kg-day
LOEL (F, Gene expression_Cyp4a1): 1.56 mg/kg-day
NOEL (F, Hematology_Erythrocytes): 25 mg/kg-day
NOEL (F, Hematology_Hematocrit): 25 mg/kg-day
NOEL (F, Hematology_Hemoglobin): 25 mg/kg-day
NOEL (F, Hematology_Mean corpuscular hemoglobin concentration): 25 mg/kg-day
NOEL (F, Hematology_Mean corpuscular volume): 25 mg/kg-day
NOEL (F, Hematology_Platelets): 25 mg/kg-day
NOEL (F, Hematology_Reticulocytes): 25 mg/kg-day
LOEL (F, Nonneoplastic effects_Bone marrow - Hypocellularity): 12.5 mg/kg-day
LOEL (F, Nonneoplastic effects_Forestomach - Epithelium, hyperplasia): 12.5 mg/kg-day
NOEL (F, Nonneoplastic effects_Kidney - Nephropathy, chronic progressive): 25 mg/kg-day
LOEL (F, Nonneoplastic effects_Liver - Hepatocyte, Necrosis): 12.5 mg/kg-day
LOEL (F, Nonneoplastic effects_Liver - Hepatocyte, cytoplasmic alteration): 1.56 mg/kg-day
LOEL (F, Nonneoplastic effects_Liver - Hepatocyte, hypertrophy): 6.25 mg/kg-day
NOEL (F, Nonneoplastic effects_Liver - Hepatocyte, vacuolization cytoplasmic): 25 mg/kg-day
LOEL (F, Nonneoplastic effects_Lymph nodes - Mandibular, atrophy): 12.5 mg/kg-day
LOEL (F, Nonneoplastic effects_Lymph nodes - Mesenteric, atrophy): 12.5 mg/kg-day
LOEL (F, Nonneoplastic effects_Nose - Olfactory epithelium, degeneration): 25 mg/kg-day
NOEL (F, Nonneoplastic effects_Nose - Olfactory epithelium, hyperplasia): 25 mg/kg-day
NOEL (F, Nonneoplastic effects_Nose - Olfactory epithelium, inflammation, suppurative): 25 mg/kg-day
NOEL (F, Nonneoplastic effects_Nose - Respiratory epithelium, hyperplasia): 25 mg/kg-day
NOEL (F, Nonneoplastic effects_Nose - Respiratory epithelium, inflammation, chronic active): 25 mg/kg-day
LOEL (F, Nonneoplastic effects_Spleen - Atrophy): 12.5 mg/kg-day
NOEL (F, Nonneoplastic effects_Spleen - Extramedullary hematopoiesis, increased): 25 mg/kg-day
LOEL (F, Nonneoplastic effects_Thymus - Atrophy): 12.5 mg/kg-day
NOEL (F, Nonneoplastic effects_Thymus - Lymphocyte, apoptosis): 25 mg/kg-day
NOEL (F, Nonneoplastic effects_Thyroid gland - Follicular cell hypertrophy): 25 mg/kg-day
LOEL (F, Organ weights_Liver - Absolute): 1.56 mg/kg-day
LOEL (F, Organ weights_Liver - Relative): 1.56 mg/kg-day
NOEL (F, Organ weights_R. adrenal gland - Absolute): 25 mg/kg-day
NOEL (F, Organ weights_R. adrenal gland - Relative): 25 mg/kg-day
LOEL (F, Organ weights_R. kidney - Absolute): 1.56 mg/kg-day
LOEL (F, Organ weights_R. kidney - Relative): 1.56 mg/kg-day
LOEL (F, Organ weights_Spleen - Absolute): 3.12 mg/kg-day
LOEL (F, Organ weights_Spleen - Relative): 6.25 mg/kg-day
NOEL (F, Organ weights_Thymus - Absolute): 25 mg/kg-day
NOEL (F, Organ weights_Thymus - Relative): 25 mg/kg-day
NOEL (F, Organ weights_Thyroid gland - Absolute): 25 mg/kg-day
NOEL (F, Organ weights_Thyroid gland - Relative): 25 mg/kg-day
LOEL (F, body weight): 6.25 mg/kg-day
LOEL (M, Clinical chemistry_Alanine aminotransferase): 1.25 mg/kg-day
LOEL (M, Clinical chemistry_Albumin): 1.25 mg/kg-day
LOEL (M, Clinical chemistry_Albumin/globulin ratio): 0.625 mg/kg-day
LOEL (M, Clinical chemistry_Alkaline phosphatase): 1.25 mg/kg-day
LOEL (M, Clinical chemistry_Aspartate aminotransferase): 1.25 mg/kg-day
LOEL (M, Clinical chemistry_Cholesterol): 0.625 mg/kg-day
NOEL (M, Clinical chemistry_Creatinine kinase): 10 mg/kg-day
LOEL (M, Clinical chemistry_Direct bilirubin): 1.25 mg/kg-day
LOEL (M, Clinical chemistry_Free thyroxine): 0.625 mg/kg-day
LOEL (M, Clinical chemistry_Globulin): 0.625 mg/kg-day
LOEL (M, Clinical chemistry_Indirect bilirubin): 1.25 mg/kg-day
LOEL (M, Clinical chemistry_Sorbitol dehydrogenase): 1.25 mg/kg-day
LOEL (M, Clinical chemistry_Testosterone): 2.5 mg/kg-day
LOEL (M, Clinical chemistry_Thyroid stimulating hormone): 2.5 mg/kg-day
LOEL (M, Clinical chemistry_Total bile acids): 0.625 mg/kg-day
LOEL (M, Clinical chemistry_Total bilirubin): 1.25 mg/kg-day
LOEL (M, Clinical chemistry_Total protein): 0.625 mg/kg-day
LOEL (M, Clinical chemistry_Total thyroxine): 0.625 mg/kg-day
LOEL (M, Clinical chemistry_Total triiodothyronine): 2.5 mg/kg-day
LOEL (M, Clinical chemistry_Triglycerides): 0.625 mg/kg-day
LOEL (M, Gene expression_Acox1): 0.625 mg/kg-day
LOEL (M, Gene expression_Acyl-CoA oxidase): 0.625 mg/kg-day
LOEL (M, Gene expression_Cyp2b1): 0.625 mg/kg-day
